Laboratory results taken from patent publication US8263638B2, “Dosing regimens for ion channel modulating compounds” (priority 2004, dated 2012).
Like-named read-outs stand apart in the source and are kept apart here.

Tests used:
[1] = test system: atrial fibrillation of 3 to 72 h duration; assay: Randomized, double-blind, step-dose, placebo-controlled study in acute atrial fibrillation (Example 2); assay type: in vivo, human
Method: This was a randomized, double-blind, step-dose, placebo-controlled, parallel group study on humans. Fifty-six patients with atrial fibrillation of 3 to 72 h duration were randomized to one of two COMPOUND A dose groups or to placebo. The two COMPOUND A groups were RSD-1 (0.5 mg/kg followed by 1.0 mg/kg) or RSD-2 (2.0 mg/kg followed by 3.0 mg/kg), doses given by intravenous infusion over 10 min. The primary endpoint was termination of atrial fibrillation during a 10-min infusion or the subsequent 30-min. Secondary endpoints included the number of patients in sinus rhythm at 0.5, 1 and 24 h post-infusion and time to conversion to sinus rhythm. […] COMPOUND A converted acute atrial fibrillation to sinus rhythm.
Patients in this study had to have a rhythm of sustained atrial fibrillation (AF) with a duration of 3 to 72 h at the time of randomization. Patients were randomized to one of three groups and in each group received up to two 10-min intravenous infusions, separated by 30 min. Infusions were placebo followed by placebo, 0.5 mg/kg followed by 1.0 mg/kg COMPOUND A, or 2.0 […] COMPOUND A. The second dose in each group was administered only if AF was present 30 min after completion of the first dose. Doses for patients weighing>113 kg were capped as if the patient weight was 113 kg.
A Holter rhythm strip continuously monitored ECG, vital signs (blood pressure and heart rate, BP and HR, respectively) and O2 saturation were recorded every 2 min from the start of infusion to 5 min after, as well as at 15, 30, 60, 120, 240, 360, and 480 min and at discharge and one-week follow-up. Twelve-lead ECGs were obtained before dosing and every minute during infusion to 5 min after, as well as at 15, 30, 60, 120, 240, 360, and 480 min and at discharge, 24 h and one-week follow-up, and at the time of arrhythmia termination or significant rhythm changes. Venous blood samples were drawn for COMPOUND A plasma concentrations at 0, 15, 30, 120, 240, 480 min discharge and at AF termination or significant adverse events.
Fifty-five patients were evaluated for efficacy. Data are presented as mean±SD, median with interquartile range (IQR), all tests were performed as two sided and 95% confidence interval (CI) were produced; p<0.05 was considered statistically significant unless stated otherwise. Analysis of the relationship between termination of AF and treatment was performed using a chi-square analysis. In cases of small cell frequencies, the Fisher's exact test was used. A Cochran-Armitage test statistic with table scores was used to test the ascending dose evaluation of efficacy.
The time to conversion from the start of the first infusion was analyzed by the Cox regression method of event time analysis and one-way ANOVA. Assessment of the significance of time point values and mean change from baseline to each follow-up reading of ECG intervals (QRS, QT, QTc), BP, and HR were made within dose groups using paired t tests, and comparisons among dose groups were made using a one-way ANOVA.

[2] = Plasma levels in Atrial Arrhythmia Conversion Trial 1 (Example 6); assay type: in vivo, human; conditions: for concentration at 10 min: human, plasma, intravenous
Method: Plasma levels were obtained, where possible, for the patients at various time intervals following the initial infusion. The time intervals were 10 minutes (i.e., immediately after the initial infusion), 35 minutes (i.e., immediately after the second infusion where applicable), 50 minutes, 90 minutes, and 24 hours.

[3] = End infusion 1, 0.5 and 1.0 mg/kg
[4] = End infusion 1, 2.0 and 3.0 mg/kg
[5] = End infusion 2, 0.5 and 1.0 mg/kg
[6] = End infusion 2, 2.0 and 3.0 mg/kg
[7] = patients receiving both infusions
[8] = patients receiving only a first infusion

COc1ccc(CCO[C@@H]2CCCC[C@H]2N2CC[C@@H](O)C2)cc1OC.Cl [COMPOUND A, (1R,2R)-2-[(3R)-hydroxypyrrolidinyl]-1-(3,4-dimethoxyphenethoxy)cyclohexane monohydrochloride]
net efficacy for conversion of recent onset AF ([1]; 61% to 5% (placebo)): 56%
median time for termination of AF from the start of the first infusion ([1]; COMPOUND A treatment groups (FIG. 1)): 11 min
HEART RATE [1, 3]: 104 ± 7 BPM
QRS [1, 3]: 86 ± 3 ms
QTc [1, 3]: 419 ± 6 ms
HEART RATE [1, 4]: 98 ± 5 BPM
QRS [1, 4]: 95 ± 3 ms
QTc [1, 4]: 449 ± 9 ms
HEART RATE [1, 5]: 107 ± 6 BPM
QRS [1, 5]: 90 ± 6 ms
QTc [1, 5]: 414 ± 11 ms
HEART RATE [1, 6]: 104 ± 6 BPM
QRS [1, 6]: 99 ± 5 ms
QTc [1, 6]: 447 ± 17 ms
cumulative AF termination within 30 min of infusion ([1]; RSD-1: 0.5 mg/kg followed by 1.0 mg/kg i.v.): 11%
patients in sinus rhythm (excluding those electrically cardioverted) at 24 h post infusion ([1]; RSD-1: 0.5 + 1.0 mg/kg): 56%
patients in sinus rhythm at 30 min post-infusion ([1]; RSD-1: 0.5 + 1.0 mg/kg): 11%
patients in sinus rhythm at 1 h post infusion ([1]; RSD-1: 0.5 + 1.0 mg/kg): 11%
median time to conversion to sinus rhythm from the start of the first infusion ([1]; RSD-1, five eventual responders): 166 min
patients reporting cardiac disorders (adverse events) ([1]; RSD-1 group): 22.2%
electrical cardioversion attempted within the study period (24 h) ([1]; RSD-1 treated): 50%
electrical cardioversion successful ([1]; RSD-1 treated): 100%
cumulative AF termination within 30 min of infusion ([1]; RSD-2: 2.0 mg/kg followed by 3.0 mg/kg i.v.): 61%
patients in sinus rhythm (excluding those electrically cardioverted) at 24 h post infusion ([1]; RSD-2: 2.0 + 3.0 mg/kg): 79%
patients in sinus rhythm at 30 min post-infusion ([1]; RSD-2: 2.0 + 3.0 mg/kg): 56%
patients in sinus rhythm at 1 h post infusion ([1]; RSD-2: 2.0 + 3.0 mg/kg): 53%
median time to conversion to sinus rhythm from the start of the first infusion ([1]; RSD-2, eleven responders): 14 min
mean heart rate ([1]; RSD-2 dose, T1=15 min (baseline mean 106)): 90 beats per min
median time to termination of AF after start of the first infusion ([1]; RSD-2 group): 11 min
patients reporting cardiac disorders (adverse events) ([1]; RSD-2 group): 16.7%
electrical cardioversion attempted within the study period (24 h) ([1]; RSD-2 treated): 22%
electrical cardioversion successful ([1]; RSD-2 treated): 100%
QT interval, first available ECG records after conversion to sinus rhythm ([1]; human, in vivo): 366 ± 28 ms
QTc interval, first available ECG records after conversion to sinus rhythm ([1]; human, in vivo): 427 ± 19 ms
drug related proarrhythmia ([1]; in vivo): no instances
effect on QTc or QRS intervals compared to placebo ([1]; infusion): did not significantly prolong
concentration at 10 min ([2]; 2 mg/kg, patients receiving both infusions (3.0 + 2.0 mg/kg), read-out: Plasma Concentration of COMPOUND A at 10 min., Mean): 3910 ng/mL
concentration at 10 min ([2]; 3 mg/kg, patients receiving only a first infusion (3.0 mg/kg), read-out: Plasma Concentration of COMPOUND A at 10 min., Mean): 4280 ng/mL
concentration at 10 min ([2]; 3 mg/kg, patients receiving only a first infusion, read-out: Plasma Concentration of COMPOUND A at 10 min., Maximum): 11600 ng/mL
concentration at 10 min ([2]; 3 mg/kg, patients receiving only a first infusion, read-out: Plasma Concentration of COMPOUND A at 10 min., Median): 4080 ng/mL
concentration at 10 min ([2]; 3 mg/kg, patients receiving only a first infusion, read-out: Plasma Concentration of COMPOUND A at 10 min., Minimum): 0 ng/mL
concentration at 10 min ([2]; patients receiving both infusions, read-out: Plasma Concentration of COMPOUND A at 10 min., Maximum): 9330 ng/mL
concentration at 10 min ([2]; patients receiving both infusions, read-out: Plasma Concentration of COMPOUND A at 10 min., Median): 4070 ng/mL
concentration at 10 min ([2]; patients receiving both infusions, read-out: Plasma Concentration of COMPOUND A at 10 min., Minimum): 0 ng/mL
Maximum Plasma Concentration of COMPOUND A, Maximum [2, 7]: 9330 ng/mL
Maximum Plasma Concentration of COMPOUND A, Median [2, 7]: 4855 ng/mL
Maximum Plasma Concentration of COMPOUND A, Minimum [2, 7]: 1430 ng/mL
Maximum Plasma Concentration of COMPOUND A, Mean ([2]; patients receiving both infusions (3.0 + 2.0 mg/kg)): 4662 ng/mL
Maximum Plasma Concentration of COMPOUND A, Maximum [2, 8]: 11600 ng/mL
Maximum Plasma Concentration of COMPOUND A, Median [2, 8]: 4075 ng/mL
Maximum Plasma Concentration of COMPOUND A, Minimum [2, 8]: 7 ng/mL
Maximum Plasma Concentration of COMPOUND A, Mean ([2]; patients receiving only a first infusion (3.0 mg/kg)): 4466 ng/mL
